How the values were obtained:
[1] = system: Raji, human Burkitts lymphoma cells; assay: Cell-MTS cellular proliferation assay, Raji; format: cell-based; conditions: Homo sapiens, 168 hr incubation
How it was run: (§1)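 Cells seeded to reach ~90% confluence at 7 days (Raji 15,000, HL-60 5,000, NCI-H460 3,000 per well); 11-point compound dilution, 100 µM to 2.0 nM final, added 24 h after plating. Exposure 168 hr at 37 °C, 5% CO2; MTS read at OD490. IC50 from background-subtracted OD490 normalized to DMSO controls.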

[2] = target: BRD4(BD1) (Homo sapiens (Human), UniProt O60885); assay: In vitro enzyme inhibition assay (BRD4 AlphaScreen, H4-tetraacetyl peptide); format: binding; conditions: BRD4(BD1) 2 nM, peptide 15 nM
How it was run: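 His-tagged BRD4(BD1), 2 nM, with 15 nM biotinylated H4K5/8/12/16(Ac) peptide in HEPES pH 7.3 buffer, 0.4% DMSO, 20 min RT with compound. Streptavidin donor and Ni-chelate acceptor beads (5 μg/mL) then equilibrated 2 h. AlphaScreen signal; IC50 by four-parameter fit.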

[3] = system: NCI-H460, human non-small cell lung cancer cells; assay: Cell-MTS cellular proliferation assay, NCI-H460; format: cell-based; conditions: Homo sapiens, 168 hr incubation
How it was run: as §1

[4] = system: HL-60, human proleukemia cells; assay: Cell-MTS cellular proliferation assay, HL-60; format: cell-based; conditions: Homo sapiens, HL-60 cells, 168 hr incubation
How it was run: as §1

SMILES | IC50 [1] [nM] | IC50 [2] [nM] | IC50 [3] [nM] | IC50 [4] [nM]
CN1Cc2cc(OCC3CC3)c(-c3cn(C)c(=O)c4ccccc34)cc2S1(=O)=O [Example 6, 4-[5-(cyclopropyhnethoxy)-2-methyl-1,1-dioxo-3H-1,2-benzothiazol-6-yl]-2-methylisoquinolin-1-one] | 500 to 5000 | ≤ 500 | 500 to 5000 | ≤ 500
COc1cc2c(cc1-c1cn(C)c(=O)c3ccccc13)S(=O)(=O)N(C)C2 [Example 4, 4-(5-methoxy-2-methyl-1,1-dioxo-3H-1,2-benzothiazol-6-yl)-2-methylisoquinolin-1-one] | 500 to 5000 | ≤ 500 | 500 to 5000 | ≤ 500
CN1Cc2cc(OCC(F)(F)F)c(-c3cn(C)c(=O)c4ccccc34)cc2S1(=O)=O [Example 10, 2-methyl-4-[2-methyl-1,1-dioxo-5-(2,2,2-trifluoroethoxy)-3H-1,2-benzothiazol-6-yl]isoquinolin-1-one] | 500 to 5000 | ≤ 500 | 500 to 5000 | ≤ 500
Cc1cc(-c2cc(S(C)(=O)=O)cc3cc(C4CC4)oc23)cn(C)c1=O [Example 23, 5-(2-cyclopropyl-5-methylsulfonyl-1-benzofuran-7-yl)-1,3-dimethylpyridin-2-one] | 500 to 5000 | ≤ 500 | > 5000 | ≤ 500
COc1cc2c(cc1-c1cc(C)c(=O)n(C)c1)S(=O)(=O)N(C)C2 [Example 3, 5-(5-methoxy-2-methyl-1,1-dioxo-3H-1,2-benzothiazol-6-yl)-1,3-dimethylpyridin-2-one] | > 5000 | ≤ 500 | > 5000 | 500 to 5000
CCS(=O)(=O)c1cc(-c2cc(OC)c(=O)n(C)c2)cc2c1nc(C)n2Cc1ccccc1 [Example 68, 5-(3-benzyl-7-ethylsulfonyl-2-methylbenzimidazol-5-yl)-3-methoxy-1-methylpyridin-2-one] | 500 to 5000 | ≤ 500 | > 5000 | 500 to 5000
Cc1cc(-c2cc3c(nc(C)n3Cc3ccc(F)cc3)c(NS(C)(=O)=O)n2)cn(C)c1=O [Example 60, N-[6-(1,5-dimethyl-6-oxopyridin-3-yl)-1-[(4-fluorophenyl)methyl]-2-methylimidazo[4,5-c]pyridin-4-yl]methanesulfonamide] | ≤ 500 | ≤ 500 | > 5000 | ≤ 500
Cc1cc(-c2cc(CS(C)(=O)=O)cc3nc(C4CC4)oc23)cn(C)c1=O [Example 56, 5-[2-cyclopropyl-5-(methylsulfonylmethyl)-1,3-benzoxazol-7-yl]-1,3-dimethylpyridin-2-one] | 500 to 5000 | ≤ 500 | > 5000 | ≤ 500
Cc1cc(-c2cc3c(nc(C)n3Cc3ccccc3)c(NS(C)(=O)=O)n2)cn(C)c1=O [Example 61, N-[1-benzyl-6-(1,5-dimethyl-6-oxopyridin-3-yl)-2-methylimidazo[4,5-c]pyridine-4-yl]methanesulfonamide] | ≤ 500 | ≤ 500 | > 5000 | ≤ 500
Cc1cc(-c2cc3c(cc2OCC(F)(F)F)CN(C)S3(=O)=O)cn(C)c1=O [Example 9, 1,3-dimethyl-5-[2-methyl-1,1-dioxo-5-(2,2,2-trifluoroethoxy)-3H-1,2-benzothiazol-6-yl]pyridine-2-one] | 500 to 5000 | ≤ 500 | > 5000 | ≤ 500

Results, then the compound that gave them:

IC50 [1] [nM] | IC50 [2] [nM] | IC50 [3] [nM] | IC50 [4] [nM] | SMILES
≤ 500 | ≤ 500 | 500 to 5000 | ≤ 500 | CCS(=O)(=O)Nc1cc(-c2cc(C)c(=O)n(C)c2)cc2c1nnn2Cc1ccc(F)cc1 [Example 28, N-[6-(1,5-dimethyl-6-oxopyridin-3-yl)-1-[(4-fluorophenyl)methyl]benzotriazol-4-yl]ethanesulfonamide]
≤ 500 | ≤ 500 | > 5000 | ≤ 500 | Cc1cc(-c2cc3c(cc2OCC2CC2)CCN3S(C)(=O)=O)cn(C)c1=O [Example 15, 5-[5-(cyclopropylmethoxy)-1-methylsulfonyl-2,3-dihydroindol-6-yl]-1,3-dimethylpyridin-2-one]
≤ 500 | ≤ 500 | 500 to 5000 | ≤ 500 | Cc1cc(-c2cc(NS(C)(=O)=O)cc3cc(C4CC4)oc23)cn(C)c1=O [Example 80, N-[2-cyclopropyl-7-(1,5-dimethyl-6-oxopyridin-3-yl)-1-benzofuran-5-yl]methanesulfonamide]
≤ 500 | ≤ 500 | 500 to 5000 | ≤ 500 | Cc1cc(-c2cc(NS(C)(=O)=O)c3c(c2)N(Cc2ccccc2)CC3)cn(C)c1=O [Example 19, N-[1-benzyl-6-(1,5-dimethyl-6-oxopyridin-3-yl)-2,3-dihydroindol-4-yl]methanesulfonamide]
≤ 500 | ≤ 500 | > 5000 | ≤ 500 | CCS(=O)(=O)N1CCOc2cc(OCC3CC3)c(-c3cc(C)c(=O)n(C)c3)cc21 [Example 50, 5-[7-(cyclopropylmethoxy)-4-ethylsulfonyl-2,3-dihydro-1,4-benzoxazin-6-yl]-1,3-dimethylpyridin-2-one]
≤ 500 | ≤ 500 | 500 to 5000 | ≤ 500 | CCN1Cc2cc(OCC3CC3)c(-c3cn(C)c(=O)c4ccccc34)cc2S1(=O)=O [Example 7, 4-[5-(cyclopropylmethoxy)-2-ethyl-1,1-dioxo-3H-1,2-benzothiazol-6-yl]-2-methylisoquinolin-1-one]
≤ 500 | ≤ 500 | > 5000 | ≤ 500 | COc1cc(-c2cc(NS(C)(=O)=O)c3c(F)nn(Cc4ccc(F)cc4)c3c2)cn(C)c1=O [Example 65, N-[3-fluoro-1-[(4-fluorophenyl)methyl]-6-(5-methoxy-1-methyl-6-oxopyridin-3-yl)indazol-4-yl]methanesulfonamide]
≤ 500 | ≤ 500 | > 5000 | ≤ 500 | COc1cc(-c2cc(NS(C)(=O)=O)c3nc(C)n(Cc4ccc(F)cc4)c3c2)cn(C)c1=O [Example 38, N-[1-[(4-fluorophenyl)methyl]-6-(5-methoxy-1-methyl-6-oxopyridin-3-yl)-2-methylbenzimidazol-4-yl]methanesulfonamide]
≤ 500 | ≤ 500 | ≤ 500 | ≤ 500 | Cn1cc(-c2cc(NS(C)(=O)=O)cc3cc(-c4ccccc4)oc23)c2ccccc2c1=O [Example 84, N-[7-(2-methyl-1-oxoisoquinolin-4-yl)-2-phenyl-1-benzofuran-5-yl]methanesulfonamide]
≤ 500 | ≤ 500 | 500 to 5000 | ≤ 500 | CCS(=O)(=O)N1CCc2cc(OCC3CC3)c(-c3cn(C)c(=O)c4ccccc34)cc21 [Example 14, 4-[5-(cyclopropylmethoxy)-1-ethylsulfonyl-2,3-dihydroindol-6-yl]-2-methylisoquinolin-1-one]
≤ 500 | ≤ 500 | 500 to 5000 | ≤ 500 | Cc1cc(-c2cc(NS(C)(=O)=O)c3ncn(Cc4cccc(F)c4)c3c2)cn(C)c1=O [Example 32, N-[6-(1,5-dimethyl-6-oxopyridin-3-yl)-1-[(3-fluorophenyl)methyl]benzimidazol-4-yl]methanesulfonamide]

Reference: US10807982B2, “Bromodomain inhibitors” (CELGENE QUANTICEL RESEARCH, INC., priority 2015, dated 2020)
